Experiments:
Format in all cases: in vivo
[1] = test system: corn (cv. H140354); assay: Corn drought stress controlled environment room trial (seed treatment); conditions: 10 days after sowing
Method: Corn seed (cv. H140354) was treated at a total application volume of 10 ml/kg with water (unstressed control and stressed control treatment groups), or an aqueous solution of Ascophyllum nodosum extract (ANE) at 2 ml/kg, or an aqueous solution of L-carnitine hydrochloride (CAR) at 0.3 g/kg, or a combinations of Ascophyllum nodosum extract at 2 ml/kg and 0.3 g/kg L-carnitine hydrochloride. Treated corn seed was sown in field soil inside cell packs set in greenhouse trays with 16 biological replicates per treatment group in a randomized complete block design. Three days after seeding, drought stress was imposed on all but the unstressed control treatment group through a 75% reduced irrigation regime relative to the full irrigation received by the unstressed control group, and assessments were made ten days after seeding.

[2] = test system: winter wheat (cv. Marius); assay: Wheat drought stress greenhouse trial (seed treatment); conditions: ANE alone 1 ml/kg, CAR alone 0.3 g/kg; for plant vigour, Mean: 0-10 scale
Method: Winter wheat seed (cv. Marius) was treated at a total application volume of 10 ml/kg with water (unstressed control and stressed control treatment groups), or an aqueous solution of Ascophyllum nodosum extract (ANE) at 1 ml/kg, or an aqueous solution of L-carnitine hydrochloride (CAR) at 0.3 g/kg, or combinations of Ascophyllum nodosum extract at 1 ml/kg with either 0.1, 0.2, 0.3, or 0.4 g/kg L-carnitine hydrochloride. Treated wheat seed was sown in soil in pots with 10 biological replicates per treatment group in a randomized complete block design. Four days after full emergence, drought stress was imposed on all but the unstressed control treatment group through a 50% reduced irrigation regime relative to the full irrigation received by the unstressed control group.

[3] = test system: soybean (cv. Mungo); assay: Soybean drought stress greenhouse trial (seed treatment); conditions: 51 days after sowing, ANE alone 1 ml/kg, CAR alone 0.3 g/kg
Method: Soybean seed (cv. Mungo) was treated at a total application volume of 10 ml/kg with water (unstressed control and stressed control treatment groups), or an aqueous solution of Ascophyllum nodosum extract (ANE) at 1 ml/kg, or an aqueous solution of L-carnitine hydrochloride (CAR) at 0.3 g/kg, or combinations of Ascophyllum nodosum extract at 1 ml/kg with either 0.1, 0.2, 0.3, or 0.4 g/kg L-carnitine hydrochloride. Treated soybean seed was sown in pots containing soil with 10 biological replicates per treatment group in a randomized complete block design. Four days after full emergence, drought stress was imposed on all but the unstressed control treatment group through a 50% reduced irrigation regime relative to the full irrigation received by the unstressed control group.

[4] = test system: Marula soybean (reference SEED-003); assay: Soybean subject to salinity stress (seed treatment), NPQt, shoot weight and synergy assessment; conditions: 17 days after sowing, ANE alone 0.36 g
Method: To supplement the observed evidence of efficacy, a synergy assessment was made. Synergy was calculated using two different methodologies, both of which find support in the literature: 1) Equation Ill from Colby, S. R. 1967. Calculating synergistic and antagonistic responses of herbicide combinations. Weed Science 15:20-22. and 2) Equation 2 from Huang, Z., and K. A. Falco. 2021. Synergy assessment for plant growth by independent joint action theory. HortScience 56(5):623-626. doi: 10.21273/HORTSC115731-21. A one-sample, two-tailed t-test was used to assess the statistical significance of the difference between the observed and predicted means. The same Seed Treatments solutions (Table 20) and trial protocol were used as in Example 6, but seeds were planted at 1.5″. To coat seeds, 0.3 mL of treatment solution was pipetted into a 500-mL glass beaker around the edges and 30 g of soybean seed was added. Marula soybean seed (reference SEED-003) from Prograin was used, without any other treatment. An estimate of NPQt was obtained using the MultispeQ™ (B-4003-AA) from PhotosynQ, according to manufaturer's directions. For the photosynthesis measuments a total of 12-14 plants per treatment were measured. For Example 7, parametric analysis of variance (ANOVA) was done using the aov function in the ggpubr package, and multiple comparison testing was done with the Tukey test (alpha=0.1) using the TukeyHSD function in the stats package in R. Shoot weight was evaluated to assess whether the positive effects observed in NPQt was reflected in more robust plant grown. Seven cell packs per treatment were measured for shoot weight.

[5] = test system: wheat (cultivar Skyfall, ref. SEED-0035); assay: Wheat subject to cold stress (seed treatment), NPQt and synergy assessment; conditions: 10 days after sowing, ANE alone 0.36 g
Method: Seed Treatment solutions were prepared per Table 20:
0.1 mL of treatment solution was pipetted into a 500-mL glass beaker around the edges and 10 g of wheat seed (cultivar Skyfall, ref. SEED-0035) was added. The beaker was swirled by hand for 1 min to coat the seeds, which were then swirled intermittently until dry, if needed.
The trial was set up according to the following protocol: • 1. 32 8-0-6 cell packs were labelled with coloured stickers to denote five treatments with 4 cell packs for non-stress controls and 7 for the remaining 4 treatments. • 2. In a container 6 L of stored field soil and 600 mL water were mixed thoroughly. • 3. If soil was too dry, an additional 300 mL water, or an amount as appropriate, was added. • 4. […]
An estimate of non-photochemical quenching (NPQt), which is the amount of incoming light that is regulated away from photosynthetic processes in order to reduce damage to the plant was obtained using the MultispeQ (B-4003-AA) from PhotosynQ, according to manufaturer's directions. For the photosynthesis measuments a total of 12-14 plants per treatment were measured. […]
To supplement the observed evidence of efficacy, a synergy assessment was made. Synergy was calculated using two different methodologies, both of which find support in the literature: 1) Equation Ill from Colby, S. R. 1967. […]

[6] = test system: winter wheat (cv. Marius); assay: Wheat salinity stress greenhouse trial (seed treatment); conditions: ANE alone 1 ml/kg, CAR alone 0.3 g/kg
Method: Winter wheat seed (cv. Marius) was treated at a total application volume of 10 ml/kg with water (unstressed control and stressed control treatment groups), or an aqueous solution of Ascophyllum nodosum extract (ANE) at 1 ml/kg, or an aqueous solution of L-carnitine hydrochloride (CAR) at 0.3 g/kg, or combinations of Ascophyllum nodosum extract at 1 ml/kg with either 0.1, 0.2, 0.3, or 0.4 g/kg L-carnitine hydrochloride. Treated wheat seed was sown in pots containing soil with 10 biological replicates per treatment group in a randomized complete block design. Four days after full emergence, salinity stress was imposed on all but the unstressed control treatment group through irrigation with saline water (8 g/l NaCl) for the remainder of the trial. The unstressed control treatment group was irrigated with non-saline water.

[7] = drought stress (75% reduced irrigation), ANE alone 2 ml/kg, CAR alone 0.3 g/kg
[8] = compared to stressed control, drought stress, ANE alone 2 ml/kg, CAR alone 0.3 g/kg
[9] = 50 days after sowing, drought stress (50% reduced irrigation)
[10] = compared to stressed control, 50 days after sowing, drought stress
[11] = drought stress (50% reduced irrigation)
[12] = compared to stressed control, drought stress
[13] = compared to stressed control, Carnitine alone 0.30 g

C[N+](C)(C)C[C@H](O)CC(=O)[O-].Cl [CAR, L-carnitine hydrochloride]
linear electron flow (LEF), Mean [1, 7]: 10.14
photosynthetic efficiency (photosystem II efficiency, Phi2), Mean [1, 7]: 0.32
root length, Mean [1, 7]: 263.3
linear electron flow (LEF), Difference (%) [1, 8]: −4.3%
non-photochemical quenching (NPQt), Difference (%) [1, 8]: −10.0%
photosynthetic efficiency (Phi2), Difference (%) [1, 8]: 5.7%
root length, Difference (%) [1, 8]: 16.4%
non-photochemical quenching (NPQt), Mean ([1]; indicator of plant stress level, drought stress (75% reduced irrigation), ANE alone 2 ml/kg, CAR alone 0.3 g/kg): 2.32
decrease in LEF ([1]; stated as decrease vs stressed control, CAR at 0.3 g/kg, drought stress): 4.3%
plant vigour, Mean ([2]; 21 days after sowing, drought stress (50% reduced irrigation), combinations as labelled): 7.60
plant vigour, Mean ([2]; 42 days after sowing, drought stress (50% reduced irrigation)): 8.35
foliar fresh weight, Mean [2, 9]: 9.94
root fresh weight, Mean [2, 9]: 3.66
plant vigour, Difference (%) ([2]; compared to stressed control, 21 days after sowing, drought stress): 7.0%
plant vigour, Difference (%) ([2]; compared to stressed control, 42 days after sowing, drought stress): 11.3%
foliar fresh weight, Difference (%) [2, 10]: 9.9%
root fresh weight, Difference (%) [2, 10]: 67.5%
foliar dry weight, Mean [3, 11]: 12.64
foliar fresh weight, Mean [3, 11]: 49.1
plant vigour, Mean [3, 11]: 9.4
foliar dry weight, Difference (%) [3, 12]: 55.9%
foliar fresh weight, Difference (%) [3, 12]: 24.9%
plant vigour, Difference (%) [3, 12]: 23.7%
shoot weight (Shoot Fresh Weight), Mean ([4]; Carnitine alone 0.30 g): 1.69
non-photochemical quenching (NPQt), Mean ([4]; Carnitine alone 0.30 g (Table 20 solutions)): 0.76
non-photochemical quenching (NPQt), Difference (%) [4, 13]: −12.4%
shoot weight, Difference (%) [4, 13]: 3.0%
non-photochemical quenching (NPQt), Mean ([5]; cold stress 13/8° C. day/night for 4 days, Carnitine alone 0.30 g (Table 20 solutions)): 0.40
non-photochemical quenching (NPQt), Difference (%) ([5]; compared to stressed control, cold stress, Carnitine alone 0.30 g): −4.8%
plant height, Mean ([6]; 22 days after sowing, salinity stress (irrigation with 8 g/l NaCl)): 27.55
relative chlorophyll content (SPAD), Mean ([6]; 29 days after sowing, salinity stress (8 g/l NaCl)): 35.30
plant height, Mean ([6]; 35 days after sowing, salinity stress (8 g/l NaCl)): 37.39
plant vigour, Mean ([6]; 43 days after sowing, salinity stress (8 g/l NaCl)): 8.68
fresh foliar biomass, Mean ([6]; 50 days after sowing, salinity stress (8 g/l NaCl)): 10.6
plant height, Difference (%) ([6]; compared to stressed control, 22 days after sowing, salinity stress): 6.8%
relative chlorophyll content (SPAD), Difference (%) ([6]; compared to stressed control, 29 days after sowing, salinity stress): 17.1%
plant height, Difference (%) ([6]; compared to stressed control, 35 days after sowing, salinity stress): 17.2%
plant vigour, Difference (%) ([6]; compared to stressed control, 43 days after sowing, salinity stress): 9.9%
fresh foliar biomass, Difference (%) ([6]; compared to stressed control, 50 days after sowing, salinity stress): 29.3%
